Experimental data published in patent US6303630A, “Diarylsulfone non-nucleoside reverse transcriptase inhibitors of human immunodeficiency virus” (University of the Sciences in Philadelphia, priority 2000, dated 2001).
Like-named read-outs stand apart in the source and are kept apart here.

Tests used:
[1] = system: HIV-1; experiment: NCI in vitro anti-HIV drug screen: XTT-formazan assay, protection of T4 lymphocytes (CEM) from HIV-1 cytopathic effects; assay type: cell-based, human immunodeficiency virus (HIV-1); details: for EC50 / inhibition at 2 µM / inhibition at 6.33 µM / inhibition at 200 µM / inhibition at 20 µM / inhibition at 0.2 µM / inhibition at 63.2 µM / inhibition at 0.634 µM / inhibition at 0.0635 µM: Human immunodeficiency virus 1, CCRF-CEM; for EC50: 144 h, HIV-1 infected CEM cells, 6 days, XTT, approximate values, read-out: EC50 (50% effective concentration against HIV cytopathic effects); for inhibition at 2 µM / activity at 2 µM: dose 2.00 × 10^-6 Molar; for inhibition at 2 µM / inhibition at 6.33 µM / inhibition at 200 µM / inhibition at 20 µM / inhibition at 0.2 µM / inhibition at 63.2 µM / inhibition at 0.634 µM / inhibition at 0.0635 µM: read-out: Percent of Protection; for inhibition at 6.33 µM / activity at 6.33 µM: dose 6.33 × 10^-6 Molar; for activity at 2 µM / activity at 6.33 µM / activity at 200 µM / activity at 20 µM / activity at 0.2 µM / activity at 63.2 µM / activity at 0.634 µM / activity at 0.0635 µM: Human immunodeficiency virus 1, Lymphocyte, read-out: Percent of Control, Infected; for TI50 (IC/EC), Therapeutic Index: IC50/EC50
Procedure: Compounds of the present invention were evaluated for anti-HIV efficacy by the National Cancer Institute's (NCI) In Vitro Anti AIDS Drug Discovery Program.
(§1) The NCI procedure is fully described, for example, in a bulletin provided by the National Institutes of Health, National Cancer Institute, Bethesda, Md. 20892, all of which is incorporated herein by reference. As related in the NCI bulletin, the procedure is based on O. W. Weislow et al., "New soluble-formazan assay for HIV-1 cytopathic effects: application to high flux screening of synthetic and natural products for AIDS-antiviral activity", J. Natl. Cancer Inst. 81:577-586 (1989), and is used to test for compounds active against human immunodeficiency virus (HIV), and is designed to detect compounds active at any stage of the virus reproductive cycle. As further related in the NCI bulletin, the assay includes killing of T4 lymphocytes by HIV. Amounts of HIV are added to cells, with a minimum of two cycles of virus reproduction found to be necessary to obtain the required cell killing. Compounds that interact with virions, cells, or virus gene-products to interfere with viral activities will protect cells from cytolysis. All were compared with a positive (e.g., AZT-treated) control evaluation at the same time under identical conditions. The procedure is set forth as follows:
(§2) A candidate compound is first dissolved in a suitable solvent, preferably dimethyl sulfoxide, then diluted 1:100 in cell culture medium before preparing serial half-log10 dilutions. T4 lymphocytes (CEM cell line) are then added and after a brief interval HIV-1 is added, resulting in a 1:200 final dilution of the compound. Uninfected cells with the compound serve as a toxicity control, and infected and uninfected without the compound serve as basic controls. Cultures are then incubated at 37° in a 5% carbon dioxide atmosphere for 6 days. The tetrazolium salt, XTT, is added to all wells, and cultures are incubated to allow formazan color development by viable cells. Individual wells are analyzed spectrophotometrically to quantitate formazan product, and in addition are viewed microscopically for detection of viable cells and confirmation of protective activity. Drug-treated virus-infected cells are compared with drug-treated noninfected cells and with other appropriate controls (untreated infected and untreated noninfected cells, drug-containing wells without cells, etc.) on the same plate. Data are reviewed in comparison with other tests performed at the same time and a determination as to activity is made.

[2] = system: T4 lymphocytes (CEM cell line); experiment: Cell growth / toxicity control in uninfected T4 lymphocytes (CEM), XTT-formazan; assay type: cell-based; details: for activity at 2 µM: dose 2.00 × 10^-6 Molar; for activity at 2 µM / activity at 0.2 µM / activity at 63.2 µM / activity at 0.634 µM / activity at 0.0635 µM / activity at 200 µM / activity at 20 µM / activity at 6.33 µM: read-out: Percent of Control, Uninfected; for activity at 0.2 µM: dose 2.00 × 10^-7 Molar; for activity at 63.2 µM: dose 6.32 × 10^-5 Molar; for activity at 0.634 µM: dose 6.34 × 10^-7 Molar; for activity at 0.0635 µM: dose 6.35 × 10^-8 Molar; for IC50: read-out: IC50 (50% inhibitory concentration for cell growth), uninfected CEM cells, 6 days, XTT, approximate values
Description: as §1, §2

[3] = dose 2.00 × 10^-4 Molar, listed as Example 21
[4] = dose 2.00 × 10^-5 Molar, listed as Example 21
[5] = Homo sapiens, CCRF-CEM, dose 2.00 × 10^-4 Molar
[6] = Homo sapiens, CCRF-CEM, dose 2.00 × 10^-5 Molar
[7] = Homo sapiens, CCRF-CEM, dose 6.33 × 10^-6 Molar

Row | Structure (SMILES) | EC50 [1] | inhibition at 2 µM [1] | inhibition at 6.33 µM [1] | activity at 2 µM [1] | activity at 6.33 µM [1] | activity at 2 µM ([2]; Homo sapiens, CCRF-CEM) | activity at 0.2 µM ([2]; Homo sapiens, CCRF-CEM) | activity at 63.2 µM ([2]; Homo sapiens, CCRF-CEM) | activity at 0.634 µM ([2]; Homo sapiens, CCRF-CEM) | activity at 0.0635 µM ([2]; Homo sapiens, CCRF-CEM) | inhibition at 200 µM ([1]; dose 2.00 × 10^-4 Molar) | inhibition at 20 µM ([1]; dose 2.00 × 10^-5 Molar) | inhibition at 0.2 µM ([1]; dose 2.00 × 10^-7 Molar) | inhibition at 63.2 µM ([1]; dose 6.32 × 10^-5 Molar) | inhibition at 0.634 µM ([1]; dose 6.34 × 10^-7 Molar) | inhibition at 0.0635 µM ([1]; dose 6.35 × 10^-8 Molar) | activity at 200 µM ([1]; dose 2.00 × 10^-4 Molar) | activity at 20 µM ([1]; dose 2.00 × 10^-5 Molar) | activity at 0.2 µM ([1]; dose 2.00 × 10^-7 Molar) | activity at 63.2 µM ([1]; dose 6.32 × 10^-5 Molar) | also measured
1 | CNc1ccccc1S(=O)(=O)c1ccccc1[N+](=O)[O-] [Compound 66, 2-(2-nitrophenylsulfonyl)-N-methylaniline] | 1.02 µM | 93.1% | 107% | 93.8% | 106% | 101% | 105% | 23.9% | 99.4% | 98.5% | – | – | – | – | – | – | – | – | – | – | TI50 (IC/EC), Therapeutic Index ([1]; listed as Example 21): 4.24 × 10^+1; Percent of Protection ([1]; dose 2.00 × 10^-4 Molar, 200 µM, listed as Example 21, 200 µM): -15.92%; Percent of Control, Infected [1, 3]: -4.33%; Percent of Protection ([1]; dose 2.00 × 10^-5 Molar, 20 µM, listed as Example 21, 20 µM): 98.73%; Percent of Control, Infected [1, 4]: 98.86%; Percent of Protection ([1]; dose 2.00 × 10^-7 Molar, 0.2 µM, listed as Example 21, 0.2 µM): 4.77%; Percent of Control, Infected ([1]; dose 2.00 × 10^-7 Molar, listed as Example 21): 14.29%; Percent of Protection ([1]; dose 6.32 × 10^-5 Molar, 63.2 µM, listed as Example 21, 63.2 µM): 24.17%; Percent of Control, Infected ([1]; dose 6.32 × 10^-5 Molar, listed as Example 21): 31.75%; Percent of Protection ([1]; dose 6.34 × 10^-7 Molar, 0.634 µM, listed as Example 21, 0.634 µM): 19.34%; Percent of Control, Infected ([1]; dose 6.34 × 10^-7 Molar, listed as Example 21): 27.41%; Percent of Protection ([1]; dose 6.35 × 10^-8 Molar, 0.0635 µM, listed as Example 21, 0.0635 µM): 2.40%; Percent of Control, Infected ([1]; dose 6.35 × 10^-8 Molar, listed as Example 21): 12.16%; Percent of Control, Uninfected [2, 3]: -4.40%; Percent of Control, Uninfected [2, 4]: 104.09%; Percent of Control, Uninfected ([2]; dose 6.33 × 10^-6 Molar, listed as Example 21): 109.40%; IC50 ([2]; listed as Example 21): 43.5 µM
2 | CNc1ccc(S(=O)(=O)c2ccccc2[N+](=O)[O-])cc1Cl [Compound 77, 4-(2-nitrophenylsulfonyl)-2-chloro-N-methylaniline] | 0.119 µM | 100% | 99.5% | 100% | 99.5% | 110% | 106% | 95.2% | 107% | 111% | 100% | 96.7% | 82% | 106% | 89.8% | 12.3% | 100% | 96.8% | 82.9% | 106% | activity at 0.634 µM ([1]; dose 6.34 × 10^-7 Molar): 90.3%; activity at 0.0635 µM ([1]; dose 6.35 × 10^-8 Molar): 16.7%; TI50 (IC/EC), Therapeutic Index [1]: > 1.69 × 10^+3; IC50 ([2]; Homo sapiens, CCRF-CEM, 144 h): > 200 µM; activity at 200 µM [2, 5]: 111%; activity at 20 µM [2, 6]: 89.7%; activity at 6.33 µM [2, 7]: 100%
3 | O=[N+]([O-])c1ccccc1S(=O)(=O)c1cccc2c1NCCC2 [Compound 46, 8-(2-nitrophenylsulfonyl)-1,2,3,4-tetrahydroquinoline] | 1.32 µM | 69.4% | 89.1% | 70% | 89.3% | 95.4% | 98.9% | 38.1% | 100% | 98.9% | -0.28% | 76.4% | 6.11% | 33.6% | 16.3% | -1.64% | 1.73% | 76.8% | 7.99% | 35% | activity at 0.634 µM ([1]; dose 6.34 × 10^-7 Molar): 17.9%; activity at 0.0635 µM ([1]; dose 6.35 × 10^-8 Molar): 0.39%; TI50 (IC/EC), Therapeutic Index [1]: 3.78 × 10^+1; IC50 ([2]; Homo sapiens, CCRF-CEM, 144 h): 49.9 µM; activity at 200 µM [2, 5]: 1.77%; activity at 20 µM [2, 6]: 95.8%; activity at 6.33 µM [2, 7]: 94%
4 | CCNc1ccccc1S(=O)(=O)c1ccccc1[N+](=O)[O-] [Compound 81, 2-(2-NITROPHENYLSULFONYL)-N-ETHYLANILINE] | 2.32 µM | 46.1% | 81.4% | 63.3% | 87.3% | 89% | 70.7% | 23.6% | 89.4% | 93.7% | 17.2% | 53.6% | 1.5% | -15% | 31.3% | 5.99% | 43.7% | 68.5% | 33% | 21.8% | activity at 0.634 µM ([1]; dose 6.34 × 10^-7 Molar): 53.3%; activity at 0.0635 µM ([1]; dose 6.35 × 10^-8 Molar): 36.1%; TI50 (IC/EC), Therapeutic Index [1]: 1.39 × 10^+1; IC50 ([2]; Homo sapiens, CCRF-CEM, 144 h): 32.2 µM; activity at 200 µM [2, 5]: 13.7%; activity at 20 µM [2, 6]: 68.6%; activity at 6.33 µM [2, 7]: 83.1%
5 | CNc1ccccc1S(=O)(=O)c1ccc(Cl)cc1OC [Compound 86, 2-(4-chloro-2-methoxyphenylsulfonyl)-N-methylaniline] | 106 µM | 0.36% | 1.52% | 2.35% | 3.49% | 96.5% | 91.7% | 95.9% | 97.1% | 95.8% | 78.8% | 5.32% | 1.18% | 27.1% | 1.22% | 0.03% | 79.2% | 7.21% | 3.16% | 28.5% | activity at 0.634 µM ([1]; dose 6.34 × 10^-7 Molar): 3.2%; activity at 0.0635 µM ([1]; dose 6.35 × 10^-8 Molar): 2.03%; TI50 (IC/EC), Therapeutic Index [1]: > 1.88 × 10^0; IC50 ([2]; Homo sapiens, CCRF-CEM, 144 h): > 200 µM; activity at 200 µM [2, 5]: 83.9%; activity at 20 µM [2, 6]: 88.3%; activity at 6.33 µM [2, 7]: 94.8%
